ChEMBL document CHEMBL1201862, “PubChem BioAssay data set” (2004)
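The compound was tested at five concentrations on cells cultured in 96-well plates, with a 48-hour exposure period. At the GI50, growth is halved.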 Calls of active or inactive are those of the source. Rule as the data show it: active = GI50 up to about 1.1 µM and inactive = higher.

Columns and labels:
Assay in all cases: growth of human tumour cells (NCI), 48 h
[1] = test system: EKVX
[2] = test system: HCT-15
[3] = test system: HL-60
[4] = test system: HOP-92
[5] = test system: IGROV-1
[6] = test system: KM12
[7] = test system: LOX IMVI
[8] = test system: MDA-MB-231
[9] = test system: NCI-H460
[10] = test system: OVCAR-4
[11] = test system: RXF 393
[12] = test system: SF-295
[13] = test system: SNB-19
[14] = test system: SNB-75
[15] = test system: SR
[16] = test system: SW-620
[17] = test system: UACC-62
[18] = test system: UO-31
[19] = test system: HCC 2998
[20] = test system: SK-MEL-28

| SMILES | GI50 [1] | GI50 [2] | GI50 [3] | GI50 [4] | GI50 [5] | GI50 [6] | GI50 [7] | GI50 [8] | GI50 [9] | GI50 [10] | GI50 [11] | GI50 [12] | GI50 [13] | GI50 [14] | GI50 [15] | GI50 [16] | GI50 [17] | GI50 [18] | GI50 [19] | GI50 [20] |
| --- | --- | --- | --- | --- | --- | --- | --- | --- | --- | --- | --- | --- | --- | --- | --- | --- | --- | --- | --- | --- |
| O=c1c(Cc2ccccc2)c(-c2ccccc2)[nH]n1C1=NCCN1 | 39.1 µM (inactive) | 7.74 µM | 15.1 µM (inactive) | 44.7 µM (inactive) | 36.5 µM (inactive) | 61 µM (inactive) | 15.5 µM (inactive) | > 100 µM (inactive) | 16.9 µM (inactive) | 54.2 µM (inactive) | 92.9 µM (inactive) | 43.6 µM (inactive) | 76.4 µM (inactive) | 22 µM (inactive) | 22.8 µM (inactive) | 38.6 µM (inactive) | 32.2 µM (inactive) | 42.6 µM (inactive) |  |  |
| O=C1c2c(O)cccc2C(C(=O)CCCCC(=O)C2c3cccc(O)c3C(=O)c3c(O)cccc32)c2cccc(O)c21 | 0.596 µM (active) | 0.662 µM | 0.485 µM (active) | 0.627 µM (active) |  | 0.607 µM (active) | 0.668 µM (active) | 0.426 µM (active) | 0.403 µM (active) | 0.782 µM (active) |  | 0.469 µM (active) | 0.288 µM (active) | 0.948 µM (active) | 0.798 µM (active) | 0.925 µM (active) | 0.724 µM (active) | 0.504 µM (active) | 0.791 µM (active) | 0.877 µM (active) |
| Cc1ccc(/N=N/c2c(C)nn(C(=O)CC(=O)Nc3ccccc3)c2C)cc1C | 26.2 µM (inactive) | > 100 µM | > 100 µM (inactive) | > 100 µM (inactive) | > 100 µM (inactive) | > 100 µM (inactive) | > 100 µM (inactive) | > 100 µM (inactive) | > 100 µM (inactive) | > 100 µM (inactive) | > 100 µM (inactive) | > 100 µM (inactive) |  | 59.7 µM (inactive) | > 100 µM (inactive) | > 100 µM (inactive) | > 100 µM (inactive) | > 100 µM (inactive) | > 100 µM (inactive) | > 100 µM (inactive) |
| Cn1c(=O)c2[nH]c(-n3nc(-c4ccccc4)cc3N)nc2n(C)c1=O | 5.42 µM (inactive) | 0.8 µM | 12 µM (inactive) | 6.46 µM (inactive) | 1.34 µM (inactive) | 6.58 µM (inactive) |  | 10.6 µM (inactive) | 3.3 µM (inactive) | 2.91 µM (inactive) | 26.8 µM (inactive) | 4.92 µM (inactive) |  |  | 4.31 µM (inactive) |  | 6.37 µM (inactive) | 6.89 µM (inactive) | 8.67 µM (inactive) | 11 µM (inactive) |
| COc1ccc(C2c3cc4c(c(OC)c3CC3OCC(=O)C32)OCO4)cc1OC (stereo unspecified) | 0.0605 µM (active) | 0.0417 µM | < 0.01 µM (active) | 25 µM (inactive) | < 0.01 µM (active) | 0.0318 µM (active) | 0.0518 µM (active) | 0.209 µM (active) | 0.0625 µM (active) | 0.0364 µM (active) | 0.0212 µM (active) | 0.0307 µM (active) | 0.0538 µM (active) |  | < 0.01 µM (active) | 0.0366 µM (active) | 0.0531 µM (active) | 0.074 µM (active) | 0.129 µM (active) | 31.9 µM (inactive) |
| Nn1nnc2ccccc21 | > 100 µM (inactive) | > 100 µM | > 100 µM (inactive) | > 100 µM (inactive) | > 100 µM (inactive) |  | > 100 µM (inactive) | > 100 µM (inactive) | > 100 µM (inactive) | > 100 µM (inactive) |  | > 100 µM (inactive) | > 100 µM (inactive) | > 100 µM (inactive) | > 100 µM (inactive) | > 100 µM (inactive) | > 100 µM (inactive) | > 100 µM (inactive) | > 100 µM (inactive) | > 100 µM (inactive) |
| Oc1ccc(CNCc2ccccc2)c2cccnc12 | 0.495 µM (active) | 0.0628 µM | 0.294 µM (active) | 0.177 µM (active) | 0.292 µM (active) | 0.448 µM (active) | 0.0308 µM (active) | 0.36 µM (active) | 0.034 µM (active) | 0.421 µM (active) | 0.116 µM (active) | 0.144 µM (active) | 0.211 µM (active) | 0.0291 µM (active) | 0.182 µM (active) | 0.356 µM (active) | 0.5 µM (active) | 0.316 µM (active) |  | 0.424 µM (active) |
| CC(NC(=O)c1ccc(NP(=O)(OCc2ccc([N+](=O)[O-])o2)N(C)CCCCCl)cc1)c1ccc(OCC2CCCCC2)c(C(N)=O)c1 (stereo unspecified) |  | 46 µM | 16 µM (inactive) | 2.95 µM (inactive) | 15.9 µM (inactive) | 13.8 µM (inactive) | 13.7 µM (inactive) | 14.9 µM (inactive) | 17.1 µM (inactive) | 12.2 µM (inactive) | 10.9 µM (inactive) | 15.5 µM (inactive) | 28.2 µM (inactive) | 11 µM (inactive) | 10.5 µM (inactive) | 28.4 µM (inactive) | 12.6 µM (inactive) | 43.4 µM (inactive) | 11.4 µM (inactive) | 17 µM (inactive) |
| Cc1cn(C2CC(Br)C(COC(c3ccccc3)(c3ccccc3)c3ccccc3)O2)c(=O)[nH]c1=O (stereo unspecified) | 14.5 µM (inactive) |  | 4.76 µM (inactive) | 11.2 µM (inactive) | 14.2 µM (inactive) | 6.71 µM (inactive) | 11.9 µM (inactive) | 17.7 µM (inactive) |  | 13 µM (inactive) | 11.2 µM (inactive) | 9.68 µM (inactive) | 16.3 µM (inactive) | 11.5 µM (inactive) | 5 µM (inactive) | 14.3 µM (inactive) | 12.2 µM (inactive) | 6.71 µM (inactive) |  | 16.7 µM (inactive) |
| Cc1n[nH]c(=O)c2c3c([nH]c12)-c1ccccc1C3 | > 100 µM (inactive) | > 100 µM |  | > 100 µM (inactive) | 0.0716 µM (active) | > 100 µM (inactive) | > 100 µM (inactive) | 66.4 µM (inactive) | > 100 µM (inactive) | > 100 µM (inactive) | 77.3 µM (inactive) | > 100 µM (inactive) | > 100 µM (inactive) | 18.7 µM (inactive) | 82.8 µM (inactive) | > 100 µM (inactive) |  | > 100 µM (inactive) |  | > 100 µM (inactive) |
| CC(=O)N(C(C)=O)c1cc2c3c(c1)CCCN3CCC2 | > 10 µM (inactive) | > 10 µM | > 10 µM (inactive) | > 10 µM (inactive) | > 10 µM (inactive) | > 10 µM (inactive) | > 10 µM (inactive) | > 10 µM (inactive) | > 10 µM (inactive) | > 10 µM (inactive) | > 10 µM (inactive) | > 10 µM (inactive) | > 10 µM (inactive) | > 10 µM (inactive) | > 10 µM (inactive) | > 10 µM (inactive) | > 10 µM (inactive) |  | > 10 µM (inactive) | > 10 µM (inactive) |
| O=[N+]([O-])c1ccc2nnnn2c1 | > 100 µM (inactive) | 8.22 µM | 16 µM (inactive) | 96.6 µM (inactive) | 34.3 µM (inactive) | 23.1 µM (inactive) | 5.7 µM (inactive) | 10.8 µM (inactive) | 31.6 µM (inactive) | 78.7 µM (inactive) | > 100 µM (inactive) | 11.3 µM (inactive) | 93.8 µM (inactive) | 85.3 µM (inactive) | 4.76 µM (inactive) | 12.7 µM (inactive) | 13.4 µM (inactive) | 7.89 µM (inactive) |  | 20.8 µM (inactive) |
| CN(C(=O)c1cccs1)C(=S)N1CCN(c2ccccc2)CC1 |  | > 100 µM | 68.5 µM (inactive) | 91.8 µM (inactive) | > 100 µM (inactive) | > 100 µM (inactive) | > 100 µM (inactive) | > 100 µM (inactive) | > 100 µM (inactive) | > 100 µM (inactive) | > 100 µM (inactive) | > 100 µM (inactive) | > 100 µM (inactive) | > 100 µM (inactive) | 54.2 µM (inactive) | > 100 µM (inactive) | > 100 µM (inactive) | > 100 µM (inactive) | > 100 µM (inactive) | > 100 µM (inactive) |
| Cc1nc(N)c(N2CCN(C(=O)O)CC2)c(O)n1 | > 100 µM (inactive) | > 100 µM | > 100 µM (inactive) | > 100 µM (inactive) |  | > 100 µM (inactive) | > 100 µM (inactive) | > 100 µM (inactive) | > 100 µM (inactive) | > 100 µM (inactive) |  | > 100 µM (inactive) | > 100 µM (inactive) | > 100 µM (inactive) | > 100 µM (inactive) | > 100 µM (inactive) |  | > 100 µM (inactive) | > 100 µM (inactive) | > 100 µM (inactive) |
| c1ccc(C/C(=N\Nc2nc3ccccc3o2)c2ccccn2)cc1 | < 0.01 µM (active) | 0.0252 µM | 0.0698 µM (active) | 0.0281 µM (active) | 0.0643 µM (active) | 0.264 µM (active) | 0.185 µM (active) | 0.126 µM (active) | 0.0931 µM (active) | < 0.01 µM (active) | 0.0851 µM (active) | 0.234 µM (active) | 0.2 µM (active) |  | 0.0424 µM (active) | < 0.013 µM (active) | 0.387 µM (active) | 0.09 µM (active) | < 0.0163 µM (active) |  |
| CCC1CCC2c3c([nH]c4ccc(C)cc34)C3C(=O)N(N(C)C)C(=O)C3C2C1 (stereo unspecified) | 26.7 µM (inactive) | 5.78 µM | 3.05 µM (inactive) | 38.7 µM (inactive) | 5.11 µM (inactive) | 6.52 µM (inactive) | 13.7 µM (inactive) | 72.8 µM (inactive) | 7.45 µM (inactive) | 34 µM (inactive) | 8.05 µM (inactive) | 5.11 µM (inactive) | 16.9 µM (inactive) |  | 3.17 µM (inactive) | 13.8 µM (inactive) | 17.6 µM (inactive) | > 75 µM (inactive) | 35.2 µM (inactive) | > 83.4 µM (inactive) |
